Structures can show the parent of a compound that is named as a salt. Where two headings read alike, the source gives them in different places.
Columns and labels:
Murine Erythroleukemia = settings: Li et al., J. Med. Chem. 24, 1089 (1981); cited from earlier work
[1] = 0.8% Clonidine; 75.2% compound + 25% isopropyl myristate vs 99.2% compound vs 99.2% DMSO; cited from earlier work
[2] = 1% Diazepam in 74% ethanol and 25% compound; cited from earlier work
[3] = for Average Cumulative Amount of ISDN in Micrograms permeating over 51 hours: cream; for permeation enhancing properties (conclusion in words): ISDN cream, 51 hours
[4] = Permeation of Diltiazem hydrochloride (DZ) from cream through human stratum corneum (Example 35); format: in vitro ADME
Excerpt: (§1) Sci. 75, 1094 (1986). […] All formulations were studied in triplicate.

[5] = format: in vitro ADME, human; settings: for Average Cumulative Amount of PG in Micrograms permeating over 51 hours: patch, releasing media 30% ethanol in normal saline
Excerpt: as §1
The procedure of Example 29 was repeated with Progesterone (PG) incorporated in transdermal patch formulations. The releasing media contained 30% ethanol in normal saline.

[6] = format: in vitro ADME, human
Excerpt: as §1

[7] = format: in vitro ADME, human; remark: listed apart in the source
Method: as §1
The Indomethacin (INDO) gel formulation used in Example 32 was prepared as follows.

[8] = Permeation of Morphine Sulfate (MS) from transdermal patch through human stratum corneum (Example 33); format: in vitro ADME
Excerpt: as §1
The procedure of Example 29 was repeated with Morphine Sulfate (MS) formulations incorporated in a transdermal patch.

[9] = cream
[10] = for Average Cumulative Amount of ISDN in Micrograms permeating over 51 hours: patch
[11] = for permeation enhancing properties (conclusion in words): ISDN cream, vs control; for Average Cumulative Amount of ISDN in Micrograms permeating over 51 hours: cream, 1% ISDN + 1% enhancer
[12] = Ishihara, C.A. 105: 48896 k (1986); cited from earlier work
[13] = Barry et al., J. Pharm. Pharmacol. 37, 226 (1985); cited from earlier work
[14] = cited from earlier work

SMILES: CCCCN1CCCN(CCCC)C1=O [1,3-dibutyltetrahydropyrimidin-2-one, 1,3-dibutyltetrahydro-pyrimidin-2-ones]
- inducers of Murine Erythroleukemia differentiation (Murine Erythroleukemia): inducers of Murine Erythroleukemia differentiation

SMILES: CCN1CCCN(CC)C1=O [1,3-diethyltetrahydropyrimidin-2-one, 1,3-diethyl]
- inducers of Murine Erythroleukemia differentiation (Murine Erythroleukemia): inducers of Murine Erythroleukemia differentiation

SMILES: CN1CCN(C)C1=O [1,3-dimethylimidazolidin-2-one]
- tail arterial blood pressure [1]: no significant differences in tail arterial blood pressure in rats

SMILES: CCCCCN1CCN(CCCCC)C1=O [1,3-dipentylimidazolidin-2-one]
- drug transport when combined with a polar substance such as ethanol [2]: potentiates the drug transport

SMILES: CCCCCCCCCCCCN1CCCCCC1=O [1-Dodecylhexahydro-2H-azepin-2-one, 1-Dodecyl-hexahydro-2H-azepin-2-one, reference compound]
- Average Cumulative Amount of ISDN in Micrograms permeating over 51 hours ([3]; 1% ISDN + 1.4% enhancer): 709 ± 170 Micrograms

SMILES: COc1ccc([C@@H]2Sc3ccccc3N(CCN(C)C)C(=O)[C@@H]2OC(C)=O)cc1 [DZ, Diltiazem hydrochloride, reference compound]
- Average Cumulative amount of DZ in Micrograms permeating over 24 hours ([4]; 5% DZ, no enhancer (Control)): 125.3 ± 37 Micrograms

SMILES: CCCCCCCCCCC1COC(=O)N1 (centres unmarked) [Example 1, 4-Decyloxazolidin-2-one]
- superiority of transdermal patch containing enhancer (conclusion in words) ([5]; PG patch): superiority of the transdermal patch
- Average Cumulative Amount of PG in Micrograms permeating over 51 hours ([5]; 3% PG + 5% enhancer): 434 ± 135 Micrograms
- permeation enhancement of Nicotine (conclusion in words) ([6]; cream and patch, vs control): enhances the permeation significantly over control
- Average Cumulative Amount of Nicotine in Micrograms permeating over 51 hours ([6]; cream, 1% Nicotine + 3% enhancer): 2002.0 ± 74.0 Micrograms
- Average Cumulative Amount of Nicotine in Micrograms permeating over 51 hours ([6]; cream, 5% Nicotine + 3% enhancer): 8497.2 ± 1195 Micrograms
- Average Cumulative Amount of Nicotine in Micrograms permeating over 51 hours ([6]; patch, 5% Nicotine + 3% enhancer): 208.1 ± 23.6 Micrograms
- Average Cumulative Amount of Nicotine in Micrograms permeating over 51 hours ([6]; patch, 10% Nicotine + 3% enhancer): 3520.0 ± 139.0 Micrograms
- advantage of incorporating enhancer (conclusion in words) ([7]; INDO gel and cream): clearly show the advantage of incorporating enhancer
- Average Cumulative Amount of INDO in Micrograms permeating over 51 hours ([7]; cream, 1% INDO + 1% enhancer): 128 ± 6.1 Micrograms
- Average Cumulative Amount of INDO in Micrograms permeating over 51 hours ([7]; gel, 1% INDO + 1% enhancer): 370.9 ± 56 Micrograms
- Average Cumulative amount of DZ in Micrograms permeating over 24 hours ([4]; 5% DZ + 3% enhancer): 303.0 ± 79.1 Micrograms
- permeation of Diltiazem hydrochloride through the skin (conclusion in words) ([4]; vs control): improves the permeation of Diltiazem hydrochloride through the skin significantly over the control
- permeation enhancing properties (conclusion in words) [3]: superior permeation enhancing properties as compared to control and a known permeation enhancer
- Average Cumulative Amount of ISDN in Micrograms permeating over 51 hours ([3]; 1% ISDN + 1.4% enhancer): 1275 ± 104 Micrograms
- superiority of patch formulation containing enhancer (conclusion in words) ([8]; MS patch): superiority of the transdermal patch formulation
- Average Cumulative Amount of MS in Micrograms permeating over 51 hours ([8]; patch, 5% MS + 1% enhancer): 622 ± 81.6 Micrograms
- Average Cumulative Amount of HC in Micrograms permeating over 24 hours ([9]; 0.5% HC + 1% enhancer): 4.970 ± 0.79 Micrograms
- permeation of HC (conclusion in words) ([9]; vs control and commercial formulation): superior permeation as compared to control cream and to a commercial formulation with higher quantity of drug
- Average Cumulative Amount of ISDN in Micrograms permeating over 51 hours ([10]; 3% ISDN (60%) + 8% enhancer): 1438.4 ± 174 Micrograms
- Average Cumulative Amount of ISDN in Micrograms permeating over 51 hours ([10]; 3% ISDN (100%) + 3% enhancer): 1355.8 ± 262.5 Micrograms
- permeation of ISDN from the transdermal patch (conclusion in words) ([10]; vs control): superior to the control

SMILES: CCCCCCCCCCC1COC(=O)N1C (centres unmarked) [Example 2, 3-methyl-4-decyloxazolidin-2-one]
- permeation enhancing properties (conclusion in words) [3]: superior permeation enhancing properties as compared to control and a known permeation enhancer
- Average Cumulative Amount of ISDN in Micrograms permeating over 51 hours ([3]; 1% ISDN + 1.6% enhancer): 1020 ± 69 Micrograms

SMILES: CCCCCCCCCCC1COC(=O)O1 (centres unmarked) [Example 10, 4-decyl-1,3-dioxolan-2-one]
- permeation enhancing properties (conclusion in words) [11]: superior permeation enhancing properties as compared to control
- Average Cumulative Amount of ISDN in Micrograms permeating over 51 hours [11]: 1174.5 ± 37.2 Micrograms

SMILES: CCCCN1C(=O)N(CCC)C(OCC)C1OCC (centres unmarked) [Example 12, 4,5-diethoxy-1-butyl-3-propylimidazolidin-2-one]
- permeation enhancing properties (conclusion in words) [11]: superior permeation enhancing properties as compared to control
- Average Cumulative Amount of ISDN in Micrograms permeating over 51 hours [11]: 1057.7 ± 12.0 Micrograms

SMILES: CCCCCCCCOC1C(OCCCCCCCC)N(C)C(=O)N1C (centres unmarked) [Example 15, 4,5-dioctyloxy-1,3-dimethylimidazolidin-2-one]
- permeation enhancing properties (conclusion in words) [11]: superior permeation enhancing properties as compared to control
- Average Cumulative Amount of ISDN in Micrograms permeating over 51 hours [11]: 1175.6 ± 33.6 Micrograms

SMILES: CCOCCCN1CCOC1=O [Example 16, 3-(3-ethoxypropyl)oxazolidin-2-one]
- permeation enhancing properties (conclusion in words) [11]: superior permeation enhancing properties as compared to control
- Average Cumulative Amount of ISDN in Micrograms permeating over 51 hours [11]: 1110.9 ± 84.1 Micrograms

SMILES: CCCCCCCCOCCN1CCOC1=O [Example 18, 3-(2-octyloxyethyl)oxazolidin-2-one]
- permeation enhancing properties (conclusion in words) [11]: superior permeation enhancing properties as compared to control
- Average Cumulative Amount of ISDN in Micrograms permeating over 51 hours [11]: 1185.1 ± 94.7 Micrograms

SMILES: CCCCCCCCCCCC1CNC(=O)N1 (centres unmarked) [Example 19, 4-undecylimidazolidin-2-one]
- permeation enhancing properties (conclusion in words) [11]: superior permeation enhancing properties as compared to control
- Average Cumulative Amount of ISDN in Micrograms permeating over 51 hours [11]: 1318.4 ± 21.6 Micrograms

SMILES: CCCCN1C(=O)OCC1Cc1ccccc1 (centres unmarked) [Example 20, 3-butyl-4-benzyloxazolidin-2-one]
- permeation enhancing properties (conclusion in words) [11]: superior permeation enhancing properties as compared to control
- Average Cumulative Amount of ISDN in Micrograms permeating over 51 hours [11]: 1147.7 ± 36.0 Micrograms

SMILES: CCCCCCCCCCCC1CN(C)C(=O)N1C (centres unmarked) [Example 21, 1,3-dimethyl-4-undecylimidazolidin-2-one]
- permeation enhancing properties (conclusion in words) [11]: superior permeation enhancing properties as compared to control
- Average Cumulative Amount of ISDN in Micrograms permeating over 51 hours [11]: 1257.0 ± 137.0 Micrograms

SMILES: CCCCN1CCN(CCOCC)C1=O [Example 22, 1-butyl-3-(2-ethoxyethyl)imidazolidin2-one]
- permeation enhancing properties (conclusion in words) [11]: superior permeation enhancing properties as compared to control
- Average Cumulative Amount of ISDN in Micrograms permeating over 51 hours [11]: 1091.2 ± 125.0 Micrograms

SMILES: COc1ccc2c(c1)c(CC(=O)O)c(C)n2C(=O)c1ccc(Cl)cc1 [INDO, Indomethacin, reference compound]
- Average Cumulative Amount of INDO in Micrograms permeating over 51 hours ([7]; cream, 1% INDO, no enhancer): 72 ± 9 Micrograms
- Average Cumulative Amount of INDO in Micrograms permeating over 51 hours ([7]; gel, 1% INDO, no enhancer (Control)): 304.8 ± 20 Micrograms

SMILES: CC(=O)[C@H]1CC[C@H]2[C@@H]3CCC4=CC(=O)CC[C@]4(C)[C@H]3CC[C@]12C [PG, Progesterone, reference compound]
- Average Cumulative Amount of PG in Micrograms permeating over 51 hours ([5]; 3% PG, no enhancer (Control)): 86 ± 61 Micrograms

SMILES: O=C1OCCO1 [ethylene carbonate, 1,3-dioxolan-2-one]
- efficacy on addition to the composition [12]: did not improve the efficacy

SMILES: CC1COC(=O)O1 (centres unmarked) [propylene carbonate, 4-methyl-1,3-dioxolan-2-one]
- flux of model penetrants through human skin [13]: low flux
- solubility in water [14]: water soluble

— US4960771A, “Oxazolidinone penetration enhancing compounds” (priority 1988, dated 1990)
